Test results taken from patent US10201531B2, “Indazolyl-oxo-isothiazole compounds” (MOCHIDA PHARMACEUTICAL CO., LTD., priority 2015, dated 2019).

Test system: Nrf2
Test: Evaluation of Nrf2 activation ability (Nrf2d-LacZ / Keap1 HEK293 reporter, Beta-Glo luminescence)
Type: cell-based, human
Experimental: HEK293 cells constantly expressing Nrf2d-LacZ (human Nrf2 degron region fused to LacZ; Hirotsu et al, Genes to Cell, Vol. 16, pp. 406-415 (2011)) and human Keap1 were seeded 7,000 cells/27 μl/well on 384-well plates (Corning 384 Well Flat Clear Bottom White Polystyrene TC-Treated Microplates, Cat. #3707), and cultured overnight at 5% CO2, 37° C. in DMEM medium containing 10% FBS, 100 U/mL penicillin and 100 μg/mL streptomycin. 3 μL/well of a 0.1% DMSO solution of the compound of the invention was added to the cells, which were then cultured for 3 hours at 5% CO2, 37° C. Beta-Glo® reagent (Promega, Beta-Glo Assay System, Cat. #E4740) was added 15 μL/well and incubated for 1 hour at room temperature, and luminescence intensity was measured with a luminometer. Using CDDO-Im as a standard, Nrf2 activation ability was calculated given 100% as the luminescence under stimulus with 100 nM CDDO-Im.

[1] = Pharmacological Test Example 1, rated A/B/C
[2] = rated A/B/C, Pharmacological Test Example 1

Compound	EC50 [1] [nM]	EC50 [2] [nM]
[O-][s+]1nc(O)cc1-n1cc(-c2ccccc2)cn1 (stereo not drawn) [Example 363]	< 1000	–
COc1nc(Cl)ccc1-c1cnn(-c2cc(O)n[s+]2[O-])c1 (stereo not drawn) [Example 440]	< 1000	–
CC1(C)CNc2ncc(-c3ccc4c(cnn4-c4cc(O)n[s+]4[O-])c3)cc2O1 (stereo not drawn) [Example 189]	–	< 1000
[O-][s+]1nc(O)cc1-n1ncc2cc(-c3ccccn3)ccc21 (stereo not drawn) [Example 43]	–	< 1000
[O-][s+]1nc(O)cc1-n1ncc2nc(-c3ccc(N4CCCCC4)nc3)ccc21 (stereo not drawn) [Example 241]	–	1000 to 5000
Cc1nn(-c2cc(O)n[s+]2[O-])c(C)c1C1=CCN(C(=O)OC(C)(C)C)CC1 (stereo not drawn) [Example 313]	–	5000 to 10000
[O-][s+]1nc(O)cc1-n1ncc2cc(F)ccc21 (stereo not drawn) [Example 11]	–	1000 to 5000
N#CC1(c2ccc(-c3cnn(-c4cc(O)n[s+]4[O-])c3)cc2)CC1 (stereo not drawn) [Example 369]	1000 to 5000	–
Cn1c(=O)n(-c2cnn(-c3cc(O)n[s+]3[O-])c2)c2ccccc21 (stereo not drawn) [Example 419]	1000 to 5000	–
COc1cc(-c2cccc3c2cnn3-c2cc(O)n[s+]2[O-])ccn1 (stereo not drawn) [Example 97]	–	1000 to 5000
Cc1nc2cc(-c3cnn(-c4cc(O)n[s+]4[O-])c3)ccc2s1 (stereo not drawn) [Example 354]	< 1000	–
[O-][s+]1nc(O)cc1-n1cc(C2Cc3ccccc3C2)cn1 (stereo not drawn) [Example 397]	< 1000	–
COc1ccc(-c2ccc3c(cnn3-c3cc(O)n[s+]3[O-])c2)cn1 (stereo not drawn) [Example 86]	–	< 1000
O=C(c1ccc(-c2ccc3c(cnn3-c3cc(O)n[s+]3[O-])c2)cc1)N1CCCC1 (stereo not drawn) [Example 75]	–	1000 to 5000
COc1nc(-c2ccc(C3CC3)nc2)ccc1-c1cnn(-c2cc(O)n[s+]2[O-])c1 (stereo not drawn) [Example 437]	1000 to 5000	–
Cn1ccc2ccc(-c3cnn(-c4cc(O)n[s+]4[O-])c3)cc21 (stereo not drawn) [Example 353]	< 1000	–
[O-][s+]1nc(O)cc1-n1cc(-c2cccc(C(F)(F)F)c2)cn1 (stereo not drawn) [Example 367]	< 1000	–
Cn1nc(-c2ccc3c(cnn3-c3cc(O)n[s+]3[O-])c2)c2ccccc21 (stereo not drawn) [Example 224]	–	< 1000
[O-][s+]1nc(O)cc1-n1ncc2cc(-c3ccccc3Cl)ccc21 (stereo not drawn) [Example 40]	–	< 1000
[O-][s+]1nc(O)cc1-n1ncc2ccccc21 (stereo not drawn) [Example 1, 5-(indazol-1-yl)-1-oxo-1,2-thiazol-3-ol]	–	1000 to 5000
[O-][s+]1nc(O)cc1-n1ncc2cc(-c3cccc(N4CCCC4)n3)ccc21 (stereo not drawn) [Example 138]	–	< 1000

Compound	EC50 [1] [nM]	EC50 [2] [nM]
[O-][s+]1nc(O)cc1-n1ncc2c3ccccc3ncc21 (stereo not drawn) [Example 239]	–	< 1000
[O-][s+]1nc(O)cc1-n1ncc2cc(C3=CCOCC3)ncc21 (stereo not drawn) [Example 236]	–	1000 to 5000
[O-][s+]1nc(O)cc1-n1cc(CCOc2ccccc2)cn1 (stereo not drawn) [Example 329]	1000 to 5000	–
[O-][s+]1nc(O)cc1-n1cc(-n2cccn2)cn1 (stereo not drawn) [Example 422]	5000 to 10000	–
N#Cc1ccc(-c2ccc3c(cnn3-c3cc(O)n[s+]3[O-])c2)nc1 (stereo not drawn) [Example 108]	–	1000 to 5000
[O-][s+]1nc(O)cc1-n1ncc2cc(-c3cccc(C(F)F)n3)ccc21 (stereo not drawn) [Example 116]	–	< 1000
[O-][s+]1nc(O)cc1-n1ncc2cc(-c3ccncc3)ccc21 (stereo not drawn) [Example 58]	–	< 1000
[O-][s+]1nc(O)cc1-n1ncc2c1CN(Cc1cccc(Oc3ccccc3)c1)C2 (stereo not drawn) [Example 264]	–	1000 to 5000
CC(C)(C)OC(=O)N1Cc2cn(-c3cc(O)n[s+]3[O-])nc2C1 (stereo not drawn) [Example 246]	–	1000 to 5000
COc1ccc(-c2ccc(-c3cnn(-c4cc(O)n[s+]4[O-])c3)cn2)cn1 (stereo not drawn) [Example 444]	< 1000	–
[O-][s+]1nc(O)cc1-n1cc(-c2cccc(-c3ccccc3)c2)cn1 (stereo not drawn) [Example 326]	< 1000	–
[O-][s+]1nc(O)cc1-n1cc(-c2ccc(C(F)(F)F)nc2)cn1 (stereo not drawn) [Example 396]	1000 to 5000	–
[O-][s+]1nc(O)cc1-n1cc(C2=Cc3ccccc3CC2)cn1 (stereo not drawn) [Example 349]	< 1000	–
[O-][s+]1nc(O)cc1-n1cc(-c2ccccn2)cn1 (stereo not drawn) [Example 386]	1000 to 5000	–
COc1cc(Br)cc2c1cnn2-c1cc(O)n[s+]1[O-] (stereo not drawn) [Example 177]	–	< 1000
[O-][s+]1nc(O)cc1-n1ncc2cc(-c3cnc(N4CCOCC4)cn3)ccc21 (stereo not drawn) [Example 142]	–	1000 to 5000
CN1CCOc2cc(-c3ccc(CCc4cnn(-c5cc(O)n[s+]5[O-])c4)cn3)cnc21 (stereo not drawn) [Example 461]	1000 to 5000	–
CN1C(=O)COc2nc(-c3ccc4c(cnn4-c4cc(O)n[s+]4[O-])c3)ncc21 (stereo not drawn) [Example 218]	–	1000 to 5000
COc1ccccc1-c1cnn(-c2cc(O)n[s+]2[O-])c1 (stereo not drawn) [Example 387]	< 1000	–
CN1CCOc2cc(-c3ccc4c(cnn4-c4cc(O)n[s+]4[O-])c3)c(C#N)nc21 (stereo not drawn) [Example 184]	–	< 1000
Cc1cncc(-c2ccc3cnn(-c4cc(O)n[s+]4[O-])c3c2)c1 (stereo not drawn) [Example 113]	–	5000 to 10000

Compound	EC50 [1] [nM]	EC50 [2] [nM]
CN(c1ccc(-c2cnn(-c3cc(O)n[s+]3[O-])c2)cn1)C1CCOCC1 (stereo not drawn) [Example 459]	1000 to 5000	–
CN1C(=O)C(C)(C)c2cc(-c3cnn(-c4cc(O)n[s+]4[O-])c3)ccc21 (stereo not drawn) [Example 425]	1000 to 5000	–
[O-][s+]1nc(O)cc1-n1ncc2c1CN(CC1CCCCC1)C2 (single isomer, unassigned) [Example 273]	–	< 1000
COC(=O)C1(c2ccc(-c3cnn(-c4cc(O)n[s+]4[O-])c3)cc2)CC1 (stereo not drawn) [Example 324]	< 1000	–
N#Cc1ccc2c(cnn2-c2cc(O)n[s+]2[O-])c1 (stereo not drawn) [Example 19]	–	1000 to 5000
O=C(Cc1ccc(-c2cnn(-c3cc(O)n[s+]3[O-])c2)cc1)N1CCc2ccccc21 (stereo not drawn) [Example 373]	5000 to 10000	–
Nc1ccc(-c2ccc3c(cnn3-c3cc(O)n[s+]3[O-])c2)cn1 (stereo not drawn) [Example 45]	–	1000 to 5000
COc1cc(-c2cc(OC)c3cnn(-c4cc(O)n[s+]4[O-])c3c2)ccn1 (stereo not drawn) [Example 201]	–	< 1000
COc1cc(-c2ccc(N3CCCC3)nc2)cc2c1cnn2-c1cc(O)n[s+]1[O-] (stereo not drawn) [Example 193]	–	< 1000
[O-][s+]1nc(O)cc1-n1ncc2cc(-c3cnc4c(c3)OCC3CCCN43)ccc21 (stereo not drawn) [Example 212]	–	< 1000
[O-][s+]1nc(O)cc1-n1ncc2c(Cl)cccc21 (stereo not drawn) [Example 29]	–	1000 to 5000
COc1cc(-c2cncc(C)c2)cc2c1cnn2-c1cc(O)n[s+]1[O-] (stereo not drawn) [Example 195]	–	1000 to 5000
CC(C)(C)OC(=O)N1CC=C(c2ccc3c(cnn3-c3cc(O)n[s+]3[O-])c2)CC1 (stereo not drawn) [Example 44]	–	< 1000
[O-][s+]1nc(O)cc1-n1ncc2cc(-c3cnn4cccnc34)ccc21 (stereo not drawn) [Example 225]	–	< 1000
[O-][s+]1nc(O)cc1-n1ncc2cc(-c3ccc(C(F)(F)F)cn3)ccc21 (stereo not drawn) [Example 132]	–	< 1000
[2H]c1cccc(-c2ccc3c(cnn3-c3cc(O)n[s+]3[O-])c2)n1 (stereo not drawn) [Example 82]	–	< 1000
[O-][s+]1nc(O)cc1-n1ncc2ccc(C(F)(F)F)cc21 (stereo not drawn) [Example 33]	–	1000 to 5000
CNc1ccc(-c2cnn(-c3cc(O)n[s+]3[O-])c2)cn1 (stereo not drawn) [Example 400]	1000 to 5000	–
CN1CCOc2cc(-c3cnn(-c4cc(O)n[s+]4[O-])c3)cnc21 (single isomer, unassigned) [Example 450]	< 1000	–
[O-][s+]1nc(O)cc1-n1ncc2c(-c3ccc(N4CCCC4)nc3)cccc21 (stereo not drawn) [Example 107]	–	1000 to 5000
COc1cc(-c2cnc3c(c2)OCCN3C)cc2c1cnn2-c1cc(O)n[s+]1[O-] (stereo not drawn) [Example 192]	–	< 1000

Compound	EC50 [1] [nM]	EC50 [2] [nM]
[O-][s+]1nc(O)cc1-n1ncc2c(-c3cncnc3)cccc21 (stereo not drawn) [Example 81]	–	5000 to 10000
CN(C(=O)N1CCC(c2ccc3c(cnn3-c3cc(O)n[s+]3[O-])c2)CC1)c1ccccc1 (stereo not drawn) [Example 170]	–	1000 to 5000
[O-][s+]1nc(O)cc1-n1cc(-c2ccc(Oc3ccccc3)cc2)cn1 (stereo not drawn) [Example 378]	< 1000	–
CN1CCOc2cc(-c3ccc4c(c3)c(C#N)nn4-c3cc(O)n[s+]3[O-])cnc21 (stereo not drawn) [Example 221]	–	1000 to 5000
[O-][s+]1nc(O)cc1-n1ncc2cc(-c3cnc4c(c3)OCCN4)ccc21 (stereo not drawn) [Example 152]	–	1000 to 5000
COc1cc(C)c2cnn(-c3cc(O)n[s+]3[O-])c2c1 (stereo not drawn) [Example 196]	–	1000 to 5000
Cc1cc2cnn(-c3cc(O)n[s+]3[O-])c2cn1 (stereo not drawn) [Example 229]	–	1000 to 5000
CN1CCc2cc(-c3ccc4c(cnn4-c4cc(O)n[s+]4[O-])c3)cnc21 (stereo not drawn) [Example 158]	–	< 1000
[O-][s+]1nc(O)cc1-n1cc(CCc2ccc(Cl)nc2)cn1 (stereo not drawn) [Example 452]	1000 to 5000	–
Cn1cc(-c2ccc3c(cnn3-c3cc(O)n[s+]3[O-])c2)ccc1=O (stereo not drawn) [Example 171]	–	5000 to 10000
[O-][s+]1nc(O)cc1-n1ncc2cc(-c3cn[nH]c3)ccc21 (stereo not drawn) [Example 51]	–	5000 to 10000
[O-][s+]1nc(O)cc1-n1ncc2cc(-c3cnc(C4CC4)cn3)ccc21 (stereo not drawn) [Example 122]	–	1000 to 5000
[O-][s+]1nc(O)cc1-n1ncc2cc(C3=CCOCC3)ccc21 (stereo not drawn) [Example 42]	–	< 1000
[O-][s+]1nc(O)cc1-n1ncc2nc(Cl)ccc21 (stereo not drawn) [Example 227]	–	1000 to 5000
CN1CCOc2cc(-c3ccc4c(c3)c(C3CC3)nn4-c3cc(O)n[s+]3[O-])cnc21 (stereo not drawn) [Example 216]	–	1000 to 5000
COc1cc(-c2ccc(C3CC3)nc2)cc2c1cnn2-c1cc(O)n[s+]1[O-] (stereo not drawn) [Example 203]	–	< 1000
[O-][s+]1nc(O)cc1-n1ncc2nc(-c3ccc(N4CCCC4)nc3)ccc21 (stereo not drawn) [Example 240]	–	1000 to 5000
CC(C)(C)OC(=O)N1CCc2c(c(I)nn2-c2cc(O)n[s+]2[O-])C1 (stereo not drawn) [Example 251]	–	5000 to 10000
